Assay results as given in patent US7128912B2, “Fibronectin binding protein compositions and methods of use” (The Texas A&M University System, priority 1997, dated 2006).

B1: modified rFnBD-D: rFnBD-D chemically modified with EDC (protein)
chain: GQNSGNQSFEEDTEEDKPKYEQGGNIVDIDFDSVPQIHGQNKGNQSFEEDTEKDKPKYEHGGNIIDIDFDSVPHIHGFNKHTEIIEEDTNKDKPSYQFGGHNSVDFEEDTLPKVSGQNEGQQTIEEDTTPPIVP
modifications: left off: small tags and cut ends
notes: rFnBD-D chemically modified with EDC
B2: native rFnBD-D: recombinant version of the S. aureus Fn-binding MSCRAMM repeat domain (protein)
chain: B1 chain
modifications: left off: small tags and cut ends

Test system: S. aureus
Assay: not given
Conditions: McGavin et al., 1991; cited from earlier work

Molecule	inhibition of binding of Fn to S. aureus / Fn-binding function
QFGGHNSVDFEEDT [D320-33]	could not inhibit binding of Fn to S. aureus

Test system: S. aureus strain Cowan binding to immobilized fibronectin
Assay: Inhibition of biotinylated S. aureus binding to immobilized fibronectin by synthetic peptides (ELISA)
Type: cell-based, Staphylococcus aureus
Conditions: 250 μg peptide (FIG. 3B)
Procedure: FIG. 2A, FIG. 2B and FIG. 2C. Inhibition of S. aureus binding to immobilized fibronectin by wild-type and mutant D3 peptides 1 through 21 (Table 3). NP indicates the amount of adherent bacteria in the absence of inhibitor. FIG. 2A. Peptides tested at 5 μg/well. FIG. 2B. Peptides tested at 50 μg/well. FIG. 2C. Peptides tested at 250 μg/well.
FIG. 3A and FIG. 3B. FIG. 3A. Inhibition of S. aureus binding to immobilized fibronectin by wild-type peptides D1 and D2 and mutant derivatives. NP indicates the amount of adherent bacteria in the absence of inhibitor. All peptides were tested at 10 μg/well. FIG. 3B. Inhibition of S. aureus binding to immobilized fibronectin by wild-type peptides D1. D2 and DU and mutant derivatives. NP indicates the amount of adherent bacteria in the absence of inhibitor. All peptides were tested at 250 μg/well.
S. aureus strain Cowan was cultured under constant rotation for 15 h at 37° C. in brain heart infusion (BHI; Difco) broth. Bacteria were harvested by centrifugation, resuspended in a bicarbonate buffer (50 mM NaHCO3, pH 8.5) to a final density of 10^10 cells/ml determined by comparing the absorbance at 600 nm of the sample with a previously prepared standard curve relating A600 to cells counted in a Petroff Hausser chamber. Bacterial cells were labeled with biotin by the addition of 100 μl of 1% NHS-biotin/ml of bacterial suspension (Pierce, Rockford, Ill.) in N,N-dimethylformamide. The staphylococcal cells were incubated with the NHS-biotin for 2 h at room temperature with constant rotation. The biotinylation reaction was stopped by removing the supernatant after centrifugation of the bacterial cells. The bacteria were then washed three times in PBS to remove unincorporated biotin. The bacterial cell suspensions were then adjusted to 1×10^10 cells/ml and the cells were stored at 4° C. in PBS, pH 7.4. To prevent unbiotinylated bacteria from growing and to reduce background, sodium azide and 0.1% BSA were added.
A series of peptides, based on the D3 repeat of S. aureus FnBPA, were synthesized to contain a proline residue at each position throughout the entire sequence (i.e., proline scan; Table 3). The mutated peptides were initially tested for their ability to inhibit biotinylated S. aureus binding to immobilized fibronectin. Wells on a 96-well Immulon II plate were coated with […] of a 30 μg/ml solution of purified Fn, either for 2 hr at room temperature or overnight at 4° C. Wells were washed three times with 1× phosphate buffered saline (PBS)-0.05% Tween-80 and blocked for 1 hr with PBS containing 0.01% Tween-80 and 1% BSA. After 1 hr, wells were washed again with PBS containing 0.05% Tween-80. Synthetic peptides were diluted to 5 mg/ml concentration in 1×PBS and tested at a concentration of 5 (FIG. 2A), 50 (FIG. 2B), or 250 μg/well (FIG. 2C). A volume of […] of the synthetic peptide was added to each well, after 15–25 min, followed by […] of biotinylated S. aureus cells. The plates were incubated for one hour at room temperature with slight agitation on a shaker. After 1 hr the wells were washed with PBS-0.05% Tween-80 and then incubated 30 min in 1:5000 dilution of secondary antibody streptavidin alkaline phosphatase. After 30 min, wells were washed again and developed with diethanolamine containing p-nitrophenyl phosphate (PNPP; 1 mg/ml) for 30 min at room temperature. The reaction was monitored at 405 nm.

Molecule	inhibitory activity compared to the wild type peptides
QNKGNQSFEEDTEKDKPKYEHPGNIIDIDFDSVPHIHG [D2–22P]	virtually no inhibitory activity
ADVVEYEEDTNPGPGQVTTESNLVEFDEEST [DU-14P]	inhibitory activity was detected
ADVVEYEEDTNPPGGQVTTESNLVEFDEEST [DU-13P]	virtually no inhibitory activity
QNSGNQSFEEDTEEDKPKYEQPGNIVDIDFDSVPQIHG [D1–22P]	inhibitory activity was detected

Same assay, conditions: FIG. 2C, peptides at 250 μg/well; proline scan of D3

Molecule	ability of mutant D3 peptides to inhibit S. aureus binding to Fn
KPPYQFGGHNSVDFEEDTLPK [compound 3]	inhibitory activity of peptides increased
KPSYQFGGHNSVDFEEDTLPP [compound 21]	enhanced S. aureus Fn binding ability
KPSYQFGGHNPVDFEEDTLPK [compound 11]	inhibitory activity of peptides increased
KPSYQFPGHNSVDFEEDTLPK [compound 7]	decreased ability to inhibit S. aureus binding to Fn
KPSYQFGGHNSVDFEEPTLPK [compound 17]	enhanced S. aureus Fn binding ability
KPSYQFGPHNSVDFEEDTLPK [compound 8]	inhibitory activity of peptides increased
KASYQFGGHNSVDFEEDTLPK [compound 2]	inhibitory activity of peptides increased
KPSYQFGGHNSVDFEPDTLPK [compound 16]	enhanced S. aureus Fn binding ability
KPSYQFGGHNSVDFEEDTPPK [compound 19]	enhanced S. aureus Fn binding ability
KPSYQFGGHNSVDFEEDPLPK [compound 18]	enhanced S. aureus Fn binding ability
KPSPQFGGHNSVDFEEDTLPK [compound 4]	decreased ability to inhibit S. aureus binding to Fn
PPSYQFGGHNSVDFEEDTLPK [compound 1]	inhibitory activity of peptides increased

Same assay, conditions: low concentration, 10 μg peptide (FIG. 3A)

Molecule	inhibitory activity compared with control samples (no peptide)
QNKGNQSFEEDTEKDKPKYEHPGNIIDIDFDSVPHIHG [D2–22P]	no inhibitory activity
QNSGNQSFEEDTEEDKPKYEQPGNIVDIDFDSVPQIHG [D1–22P]	no inhibitory activity

Test system: S. aureus
Assay: Inhibition of Fn binding to S. aureus (rFnBD-D, EDC-modified rFnBD-D, immune IgG)
Type: cell-based, Staphylococcus aureus
Conditions: not given
Excerpt: Based on this observation, the inventors hypothesized that only Fn-binding MSCRAMMs that lack binding activity should lead to blocking antibodies. A recombinant version of the Fn-binding MSCRAMM rFnBD-D was chemically modified with EDC as previously described (McGavin et al., 1991) and tested for its ability to inhibit Fn binding to S. aureus. […] The chemically modified rFnBD-D was then used to immunize rabbits. […] With efficiencies of approximately 98%, chemical modification had the advantage of providing a quick and efficient method for probing entire classes of amino acids. However, an inherent disadvantage in this global approach is that the contribution to binding of individual amino acids was not detected.

Molecule	inhibition of Fn binding to S. aureus
B1	no inhibitory activity
B2	inhibited Fn binding to S. aureus in a dose-dependent manner
